Among the data in patent US10835500B2, “Medicament for accelerated wound healing” (Symrise AG, priority 2014, dated 2020) are EC50 values, retold here.

This assay concerns the target T1, OR2AT4 (human olfactory receptor, endogenously expressed in HaCaT cells) (Homo sapiens, UniProt A6NND4).
T1 construct: OR2AT4, endogenous, HaCaT cells, calcium; endogenous in cells; host or cells: HaCaT cells
T1 sequence (A6NND4 1-320): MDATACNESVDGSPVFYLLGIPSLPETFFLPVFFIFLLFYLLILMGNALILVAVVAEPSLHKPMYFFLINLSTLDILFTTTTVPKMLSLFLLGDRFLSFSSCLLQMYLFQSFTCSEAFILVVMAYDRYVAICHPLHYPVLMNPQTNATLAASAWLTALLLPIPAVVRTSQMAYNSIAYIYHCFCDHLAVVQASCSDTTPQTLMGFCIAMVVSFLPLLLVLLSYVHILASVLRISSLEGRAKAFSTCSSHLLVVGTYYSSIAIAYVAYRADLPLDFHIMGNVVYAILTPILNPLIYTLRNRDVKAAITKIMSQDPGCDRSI
Nature of the assay: Calcium imaging, dose-dependent activation of HaCaT cells by Sandalore, fourth application (FIG. 9D). The class given is cell-based. Conditions: HaCaT keratinocytes, endogenous OR2AT4, intracellular calcium signal amplitude, 0.0125-10 mM. From the text:
A method established at the Department of Cell Physiology of Ruhr University Bochum for deorphanization studies is calcium imaging, in which activation of an OR by an odorant is visualized by a change in the intracellular calcium concentration of transfected cells using a fluorescent dye [cf. Wetzel et al. in: J. Neurosci. 19, pp. 7426-7433 (1999); Spehr et al. in: Science 299, pp. 2054-2058 (2003); Neuhaus et al. in: J. Biol. Chem. 284, pp. 16218-16225 (2009)]. In this method, the Hana3A cells are briefly (20 s) stimulated with an odorant and selected for odorant screenings of high concentrations (up to 1 mM) in order to confirm activation of ORs weakly expressed in Hana3A cells.
For detection of OR2AT4 at the transcript level, RNA of various skin cell types and skin biopsy specimens was isolated, and RT-PCR was carried out. Transcripts of OR2AT4 were detected in human primary keratinocytes of various differentiation stages, HaCaT cells, and human skin biopsy specimens (full thickness skin) (FIG. 6). […] In contrast, no expression of the receptor was detected in adipocytes or fibroblasts (FIG. 6, center). […]
Effect of the OR2AT4 ligand Sandalore® on intracellular calcium concentration of cultivated keratinocytes. […] Right: Quantitative evaluation of calcium signals in 4-time application of Sandalore® (500 μM). […]
A general note: Calcium assays in cells follow changes in intracellular calcium, usually with a dye or a luminescent sensor.

Each structure is given as a SMILES string.

Consider `CC1=CCC(CCC(C)C(C)O)C1(C)C` (stereo not shown) [Sandalore], for which the EC50 (commonly the concentration at which the effect is half-maximal) is 110 µM.
